Measured values taken from US20220144823A1, “PYRAZOLOPYRIDINE DERIVATIVES AS INHIBITORS OF PASK” (Galapagos NV, priority 2019, published 2022).

Assays:
human PASK [1] = target: T1, human PASK (Homo sapiens, UniProt Q96RG2); test: ADP-Glo kinase assay; assay type: biochemical; settings: ADPGlo PASK kinase assay, 25 μM ATP, ZIPtide 25 μM
T1 construct: purchased ThermoFisher Scientific PR7013A
Outline: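 Human recombinant PASK phosphorylating ZIPtide peptide with ATP, 120 min at RT; compounds in 10-point 1/5 dilution series, 1% DMSO final. ADP formed measured by ADP-Glo luminescence after ATP depletion; percent inhibition fitted to dose-response curves for averaged IC50.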

human PASK [2] = target: T1, human PASK; test: 33P radioactive kinase assay; assay type: biochemical; settings: 33P radioactive PASK kinase assay, 10 μM ATP, ZIPtide 1 μM
Outline: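 Human PASK phosphorylation of ZIPtide peptide was measured by incorporation from [^33P]-ATP plus unlabelled ATP, with a 10-point, 1/5 dilution series from 0.2 or 2 mM DMSO stocks and 1% DMSO final. Reactions were stopped with phosphoric acid, filter-harvested, washed and scintillation-counted. Percentage inhibition gave dose–response curves and averaged IC50s.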

T1 sequence (Q96RG2 whole entry): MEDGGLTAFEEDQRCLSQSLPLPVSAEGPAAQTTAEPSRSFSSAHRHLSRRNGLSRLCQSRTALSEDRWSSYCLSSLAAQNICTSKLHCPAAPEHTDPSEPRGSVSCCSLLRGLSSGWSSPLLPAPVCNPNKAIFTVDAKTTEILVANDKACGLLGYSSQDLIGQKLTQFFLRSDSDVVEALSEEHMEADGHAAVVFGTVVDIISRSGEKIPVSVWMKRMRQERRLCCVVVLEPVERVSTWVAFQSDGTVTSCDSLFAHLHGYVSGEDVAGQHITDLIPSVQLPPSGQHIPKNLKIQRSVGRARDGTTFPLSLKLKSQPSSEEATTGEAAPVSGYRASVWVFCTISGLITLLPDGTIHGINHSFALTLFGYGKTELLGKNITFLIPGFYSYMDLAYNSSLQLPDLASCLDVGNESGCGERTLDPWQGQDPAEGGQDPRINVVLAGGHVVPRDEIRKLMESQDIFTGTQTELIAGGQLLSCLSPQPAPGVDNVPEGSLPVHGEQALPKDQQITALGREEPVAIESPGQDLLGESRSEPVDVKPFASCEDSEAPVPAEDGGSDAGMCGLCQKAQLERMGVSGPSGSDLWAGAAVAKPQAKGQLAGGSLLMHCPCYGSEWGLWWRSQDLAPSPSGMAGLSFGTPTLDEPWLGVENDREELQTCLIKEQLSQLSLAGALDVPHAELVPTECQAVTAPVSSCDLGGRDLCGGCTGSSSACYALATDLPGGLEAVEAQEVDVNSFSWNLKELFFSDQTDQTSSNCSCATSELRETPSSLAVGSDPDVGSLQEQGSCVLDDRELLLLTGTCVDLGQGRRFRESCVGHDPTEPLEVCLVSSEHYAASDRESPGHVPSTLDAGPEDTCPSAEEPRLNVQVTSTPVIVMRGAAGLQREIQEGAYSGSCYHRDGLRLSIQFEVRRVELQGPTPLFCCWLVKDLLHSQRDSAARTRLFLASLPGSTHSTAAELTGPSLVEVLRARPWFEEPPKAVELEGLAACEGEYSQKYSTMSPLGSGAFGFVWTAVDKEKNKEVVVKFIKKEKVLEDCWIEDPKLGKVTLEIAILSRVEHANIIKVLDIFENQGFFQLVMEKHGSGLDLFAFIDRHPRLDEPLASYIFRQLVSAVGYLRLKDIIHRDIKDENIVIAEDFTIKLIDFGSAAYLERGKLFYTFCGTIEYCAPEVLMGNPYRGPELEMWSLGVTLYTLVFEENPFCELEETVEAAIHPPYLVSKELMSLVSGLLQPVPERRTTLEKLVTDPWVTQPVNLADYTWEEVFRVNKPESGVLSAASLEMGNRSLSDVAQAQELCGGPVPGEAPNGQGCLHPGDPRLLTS

- IC50 (human PASK [1]): 0.01 to 10 nM
- IC50 (human PASK [2]): 0.01 to 10 nM
Compound: Cc1nn(C(C)C)c(C)c1-c1cnn2ccc(-c3cc(C(=O)O)co3)cc12 [Cpd 18, 5-[3-(1-isopropyl-3,5-dimethyl-pyrazol-4-yl)pyrazolo[1,5-a]pyridin-5-yl]furan-3-carboxylic acid]
